Key:
PknGΔTPRΔ73 mutant I292G = PknGΔTPRΔ73 mutant I292G (Mycobacterium tuberculosis, UniProt P9WI73, I292G); format: binding; conditions: 100 µM
PknGΔTPRΔ73 mutant Y234L = PknGΔTPRΔ73 mutant Y234L (Mycobacterium tuberculosis, UniProt P9WI73, Y234L); format: binding; conditions: 100 µM
PknGΔTPRΔ73 mutant V235P = PknGΔTPRΔ73 mutant V235P (Mycobacterium tuberculosis, UniProt P9WI73, V235P); format: binding; conditions: 100 µM
[1] = target: full-length PknG with natural substrate GarA (Mycobacterium tuberculosis, UniProt P9WI73); test: Kinase Glo Plus luminescent end point inhibition assay; format: biochemical; conditions: tethered docking compounds assayed at 40 μM

Compound: NC(=O)c1c(N)c(C(=O)c2ccc(F)cc2)n2ccccc12 [B1]
- shift in the melting temperature (PknGΔTPRΔ73 mutant I292G): no shift
- shift in the melting temperature (PknGΔTPRΔ73 mutant Y234L): no shift
- shift in the melting temperature (PknGΔTPRΔ73 mutant V235P): no shift

Compound: CC(C)c1ccc(C(=O)c2c(N)c(C(N)=O)c3ccccn23)cc1 [T1]
- kinase activity [1]: considerably diminished kinase activity

Compound: NC(=O)c1c(NC(=O)NCC2CCCO2)sc2c1CCCC2 (stereo not drawn) [T2]
- kinase activity [1]: considerably diminished kinase activity

Compound: CCN1CCCC1CNC(=O)Nc1sc2c(c1C(N)=O)CCCC2 (stereo not drawn) [T3]
- kinase activity [1]: considerably diminished kinase activity
